Results taken from BindingDB's records for patent US9675697 (University of Michigan, 2017).

Target: Bromodomain-containing protein 4 (Homo sapiens, UniProt O60885)
Assay: FP Competitive Binding Assay (No.350)
Conditions: 25 °C
Method: Fluorescence Polarization (FP) competitive binding studies (see above) were carried out using the FAM labeled fluorescent probe Cpd. No. 350 to determine binding affinities of representative compounds to both BD1 and BD2 of BRD2, BRD3, and BRD4 proteins. Equilibrium dissociation constants (Id) values of Cpd. […] Final Cpd. […] Kd values of Cpd.

| Compound | Ki [nM] |
| --- | --- |
| COc1cc2c(cc1-c1c(C)noc1C)[nH]c1nc(C)nc(-c3ccc(NC(=O)N4CCN(C)CC4)c4ccccc34)c12 [US9675697, Cpd. No. 316] | 2.9 |
| COc1cc2c(cc1-c1c(C)noc1C)[nH]c1nc(C)nc(-c3ccc(NC(=O)N4CCN(C5COC5)CC4)c4ccccc34)c12 [US9675697, Cpd. No. 317] | 7.1 |
